The values below are quoted from earlier work in patent publication US8309490B2, “Low VOC and stable plant growth regulator liquid and granule compositions” (Valent BioSciences Corporation, priority 2009, dated 2012).

The conditions of this data set: at 25° C.

SMILES strings stand for the structures.

As for `O=C(Nc1ccccc1)Nc1ccnc(Cl)c1` [CPPU, forchlorfenuron], the water solubility is reported as 39 ppm.
